Reference: patent US5625032A, “Selective amylin antagonist peptides and uses therefor” (Amylin Pharmaceuticals, Inc., priority 1993, dated 1997)
“Also recorded” adds a separate entry of the source. Peptide text beside a SMILES is read from it.

Legend:
rat soleus muscle = assay: Soleus muscle assay: antagonism of 100 nM rat amylin on insulin-stimulated glycogenesis; format: cell-based; settings: read-out: IC50, antagonism of amylin effect on insulin-stimulation of glycogenesis in skeletal muscle
Protocol: Rat soleus muscle preparations have been in use for many years to study muscle glycogen metabolism and are well known in the field. The soleus muscle assay can be used to measure or test for amylin antagonist activity in vitro. Assays of biological activity of amylin or amylin antagonist preparations in the soleus muscle are performed using previously described methods (e.g., Young, A. A. et al., Am. J. Physiol. 263:E274-281 (1992)).
In summary, while amylin or amylin agonist activity is assessed by measuring the incorporation of radiolabelled glucose into glycogen in soleus muscle in response to an amylin or other amylin agonist, amylin antagonist activity is assessed by measuring the reversal of this inhibition in the presence of 100 nM rat amylin and an amylin antagonist. Concentrations of peptide dissolved in carrier-free buffers are determined by quantitative amino acid analysis, as described herein. The ability of compounds to act as antagonists in this assay can also be evaluated by measuring IC50 values. Standard errors are determined by fitting of sigmoidal dose response curves using a four parameter logistic equation (De Lean, A., Munson, P. J., Guardabasso, V. and Rodbard, D. (1988) ALLFIT, Version 2.7, National Institute of Child Health and Human Development, N.I.H. Bethesda, Md., 1 diskette).
These assays involving the stimulation by insulin of glycogen synthesis in rat soleus muscle in vitro were performed as described by Young, A. A. et al., Am. J. Physiol. 263:E274-281 (1992). Rat amylin inhibited the insulin-stimulated incorporation of radiolabelled glucose into glycogen.
The effects of the peptide in the rat soleus muscle glycogenesis system were measured according to the following method. Insulin-stimulated radioglucose incorporation was measured as described above in the presence of 100 nM rat amylin to maximally suppress incorporation. Increasing concentrations of AAP30 (SEQ ID NO:30), AAP37 (SEQ ID NO:37) and AAP40 (SEQ ID NO:40) were added to test their antagonism of amylin, i.e., to increase radioglucose incorporation under these conditions.

CGRP receptors = target: T1, CGRP receptors (Homo sapiens, UniProt O60894+Q16602); assay: CGRP receptor binding assay (125I human αCGRP, SK-N-MC cell membranes); settings: for IC50: 20 pM 125I human αCGRP; for selectivity for amylin receptors than CGRP receptors: ratio of CGRP receptor IC50 to amylin receptor IC50
T1 construct: SK-N-MC cells were homogenized in 50 mM HEPES buffer, pH 7.4, and membranes were collected by centrifugation; endogenous in cells; host or cells: human SK-N-MC neuroblastoma cells (membranes)
T1 sequence (Q16602 23-461): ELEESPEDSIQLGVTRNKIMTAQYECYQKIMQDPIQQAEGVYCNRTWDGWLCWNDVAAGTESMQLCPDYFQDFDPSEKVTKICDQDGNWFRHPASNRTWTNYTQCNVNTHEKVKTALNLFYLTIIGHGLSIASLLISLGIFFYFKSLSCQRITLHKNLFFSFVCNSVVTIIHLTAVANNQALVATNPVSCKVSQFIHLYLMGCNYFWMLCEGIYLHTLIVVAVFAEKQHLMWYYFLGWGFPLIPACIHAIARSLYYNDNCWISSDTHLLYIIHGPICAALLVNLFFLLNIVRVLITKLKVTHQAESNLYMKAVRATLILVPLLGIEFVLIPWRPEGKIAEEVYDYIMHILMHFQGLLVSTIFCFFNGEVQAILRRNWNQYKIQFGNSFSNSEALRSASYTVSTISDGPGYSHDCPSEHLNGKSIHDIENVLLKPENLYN
T1 sequence (O60894 27-148): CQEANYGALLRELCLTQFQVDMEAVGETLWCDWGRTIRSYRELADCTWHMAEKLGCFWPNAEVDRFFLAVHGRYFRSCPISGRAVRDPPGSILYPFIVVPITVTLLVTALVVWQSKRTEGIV
Excerpt: (§1) As more fully described in Example 9, these assays, like the amylin receptor binding assay, are competition assays which measure the ability of compounds to bind specifically to certain membrane-bound receptors. Preferred sources of membrane preparations used in these assays are human SK-N-MC neuroblastoma cells and human T47D carcinoma cells to measure binding to CGRP and calcitonin receptors, respectively. Compounds being assayed compete for binding to the CGRP receptor preparations with ^125 I human αCGRP and to the calcitonin receptor preparations with ^125 I salmon calcitonin. Competition curves are analyzed as described for amylin receptor binding assays. The affinity of a compound for the amylin receptor relative to the affinity of the compound for the CGRP and calcitonin receptors determines the selectivity of the compound.
(§2) The selectivity of antagonist peptides for the amylin receptor relative to the CGRP and calcitonin receptors was determined by using two in vitro radioligand binding assays and comparing the results obtained to those acquired from the amylin receptor binding assay described in Example 7.
To measure the affinity of the peptides for CGRP receptors, human SK-N-MC neuroblastoma cells were used. […] Van Valen, Piechot & Jurgens, Neuroscience Letters 119:195-198 (1990). SK-N-MC cells were homogenized in 50 mM HEPES buffer, pH 7.4, and membranes were collected by centrifugation for 15 min at 48,000×g. Membranes were suspended at 0.1 to 0.2 mg protein/0.2 ml assay and were incubated in 50 mM HEPES, pH 7.4 containing BSA, bacitracin, and 2 mM MgCl2 with 20 pM ^125 I human αCGRP (labeled at ^10 his, 2000 Ci/mmol) and unlabeled peptide. Additional methods were similar to those described for amylin receptor binding assays in Example 2.

calcitonin receptors [1] = target: T2, calcitonin receptors (Homo sapiens, UniProt P30988); assay: Calcitonin receptor binding assay (125I salmon calcitonin, T47D cell membranes); settings: 30 pM 125I salmon calcitonin, 60 minutes, ambient temperature
T2 construct: Membranes were prepared from confluent cultures of T47D cells as described for SK-N-MC cells; endogenous in cells; host or cells: human T47D carcinoma cells (membranes)
T2 sequence (P30988 25-474): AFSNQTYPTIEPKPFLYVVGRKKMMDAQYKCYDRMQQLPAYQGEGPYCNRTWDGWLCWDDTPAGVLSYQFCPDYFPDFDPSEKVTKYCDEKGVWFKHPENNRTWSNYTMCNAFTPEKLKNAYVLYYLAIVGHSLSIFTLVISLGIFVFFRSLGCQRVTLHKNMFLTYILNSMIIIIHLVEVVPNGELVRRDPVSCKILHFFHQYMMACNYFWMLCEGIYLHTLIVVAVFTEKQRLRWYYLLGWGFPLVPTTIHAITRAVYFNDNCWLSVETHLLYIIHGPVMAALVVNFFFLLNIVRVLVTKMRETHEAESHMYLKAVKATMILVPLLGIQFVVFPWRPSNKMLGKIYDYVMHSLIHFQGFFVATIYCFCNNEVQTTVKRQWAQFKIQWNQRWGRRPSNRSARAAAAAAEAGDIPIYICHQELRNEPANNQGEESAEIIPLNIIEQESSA
Excerpt: as §1, §2
(§3) To determine the affinity of the antagonist peptides for calcitonin receptors, human T47D carcinoma cells were used. […] Findlay et al., Cancer Research 40:4764-4767 (1980). Membranes were prepared from confluent cultures of T47D cells as described for SK-N-MC cells. Membranes were incubated with ^125 I salmon calcitonin (labeled at ^22 tyr, 2000 Ci/mmol) at a concentration of 30 pM for 60 minutes at ambient temperature. Additional methods were similar to those described for amylin receptor binding assays in Example 2. The IC50 of AAP40 (SEQ ID NO:40) for ^125 I salmon calcitonin binding to human T47D cell membranes was 50 nM.

calcitonin receptors [2] = assay: as above; design: species or system human; settings: ratio of calcitonin receptor IC50 to amylin receptor IC50
Excerpt: as §1, §2, §3

anesthetized rats = assay: Infusion studies: inhibition of amylin-induced changes in plasma glucose, lactate, calcium and blood pressure; format: in vivo; settings: rat, i.v. 1.5 mg bolus then 3 mg/hr for 1.5 h; amylin 50 μg bolus + 50 μg/hour
Protocol: Briefly, these studies are performed on anesthetized rats as described in International Application Number PCT/US92/00185, "Amylin Activity Assays", published Jul. 22, 1992. At time -0.5 hours, test rats are infused with a 1.5 mg bolus of the antagonist being tested followed by antagonist infusion at 3 mg/hr for a further 1.5 hours. At time 0 hours, a 50 μg bolus of amylin is administered followed by amylin infusion at 50 μg/hr for the remainder of the experiment. In these tests, the capacity of the antagonist to block the hyperglycemic and hyperlactemic effects of amylin are indicated by the inhibition of amylin-evoked increases in plasma glucose and plasma lactate.
Amylin antagonists were evaluated in vivo for their ability to inhibit amylin-induced elevation of plasma glucose and plasma lactate and amylin-evoked depression of plasma calcium and blood pressure. Male Harlan Sprague Dawley rats (age 75-85 days, mass 300-350 g) fasted 18-20 hours were halothane anesthetized and cannulated via the saphenous vein for infusions/injections and via the femoral artery for sampling of glucose/lactate/calcium and for recording arterial pressure. One and a half hours after surgery they were infused with a 1.5 mg intravenous bolus of test antagonist, followed by an infusion of 3 mg/hour for a further 1.5 hours (t=-0.5→+1.0 hr). At t=0 hours (0.5 hours after the start of the primed/continuous antagonist infusion) a 50 μg intravenous bolus of rat amylin was administered followed by an infusion of 50 μg/hour which continued until the end of the experiment. Blood samples were collected every 10 minutes for the first 2 hours of the test (then less frequently),and mean arterial pressure was continuously recorded from t=-0.5→t=+0.5 hours. Control rats, not administered the test substance, were injected with either saline or with primed/continuous amylin at t=0 hours, as described above.

SMILES | IC50 (rat soleus muscle) | IC50 (CGRP receptors) | selectivity for amylin receptors than CGRP receptors (CGRP receptors) | IC50 (calcitonin receptors [1]) | selectivity for amylin receptors than calcitonin receptors (calcitonin receptors [2]) | effect on amylin-induced decrease in blood pressure (hypotension) (anesthetized rats) | effect on amylin-induced decrease in plasma calcium (hypocalcemia) (anesthetized rats) | effect on amylin-induced increase in plasma glucose (hyperglycemia) (anesthetized rats) | effect on amylin-induced increase in plasma lactate (hyperlactemia) (anesthetized rats)
CC(=O)N[C@@H](C)C(=O)N[C@H](C(=O)N[C@@H](CCC(N)=O)C(=O)N[C@@H](CC(C)C)C(=O)N[C@@H](CC(C)C)C(=O)N[C@@H](C)C(=O)N[C@@H](CC(N)=O)C(=O)N[C@@H](CCC(N)=O)C(=O)N[C@@H](CC(C)C)C(=O)N[C@H](C(=O)N[C@@H](CCCNC(=N)N)C(=O)N[C@@H](CC(C)C)C(=O)N[C@@H](CCC(N)=O)C(=O)N[C@H](C(=O)N[C@@H](Cc1ccc(O)cc1)C(=O)N1CCC[C@H]1C(=O)N[C@@H](CCCNC(=N)N)C(=O)N[C@H](C(=O)N[C@@H](CC(N)=O)C(=O)N[C@H](C(=O)NCC(=O)N[C@@H](CO)C(=O)N[C@@H](CC(N)=O)C(=O)N[C@H](C(=O)N[C@@H](Cc1ccc(O)cc1)C(N)=O)[C@@H](C)O)C(C)C)[C@@H](C)O)[C@@H](C)O)C(C)C)[C@@H](C)O [AAP30] (Ac-ATQLLANQLVRLQTYPRTNVGSNTY-NH2; N-terminus assumed) | 1130 nM | 69 nM | 43 fold | 36 nM | 22 fold | did not inhibit amylin-induced decreases in blood pressure | did not inhibit | suppressed; also recorded: prevent | suppressed; also recorded: prevent
CC(=O)N[C@@H](C)C(=O)N[C@H](C(=O)N[C@@H](CCC(N)=O)C(=O)N[C@@H](CCCNC(=N)N)C(=O)N[C@@H](CC(C)C)C(=O)N[C@@H](C)C(=O)N[C@@H](CC(N)=O)C(=O)N[C@@H](CCC(N)=O)C(=O)N[C@@H](CC(C)C)C(=O)N[C@H](C(=O)N[C@@H](CCCNC(=N)N)C(=O)N[C@@H](CC(C)C)C(=O)N[C@@H](CCC(N)=O)C(=O)N[C@H](C(=O)N[C@@H](Cc1ccc(O)cc1)C(=O)N1CCC[C@H]1C(=O)N[C@@H](CCCNC(=N)N)C(=O)N[C@H](C(=O)N[C@@H](CC(N)=O)C(=O)N[C@H](C(=O)NCC(=O)N[C@@H](CO)C(=O)N[C@@H](CC(N)=O)C(=O)N[C@H](C(=O)N[C@@H](Cc1ccc(O)cc1)C(N)=O)[C@@H](C)O)C(C)C)[C@@H](C)O)[C@@H](C)O)C(C)C)[C@@H](C)O [AAP37] (Ac-ATQRLANQLVRLQTYPRTNVGSNTY-NH2) | 4590 nM | 2.6 nM | 12 fold | 160 nM | 762 fold | did block this effect | did not inhibit | suppressed; also recorded: prevent | suppressed; also recorded: prevent
